Test system: MV-4-11 cells
Assay: Gene expression microarray analysis (Affymetrix PrimeView) and GSEA
Assay type: cell-based, human
Set-up: RFU PODN (11730768_x_at) / Fold change /veh PODN (11730768_x_at) / RFU LINC00158 (11744669_a_at) / Fold change /veh LINC00158 (11744669_a_at) / RFU DUSP10 (11751237_a_at) / Fold change /veh DUSP10 (11751237_a_at) / RFU ID3 (11757404_x_at) / Fold change /veh ID3 (11757404_x_at) / RFU PLEKHG5 (11737974_s_at) / Fold change /veh PLEKHG5 (11737974_s_at) / RFU LRRC4B (11730491_at) / Fold change /veh LRRC4B (11730491_at) / RFU GIMAP4 (11747438_a_at) / Fold change /veh GIMAP4 (11747438_a_at) / RFU KRT8 (11758183_x_at) / Fold change /veh KRT8 (11758183_x_at) / RFU CNN1 (11734310_a_at) / Fold change /veh CNN1 (11734310_a_at) / RFU VPS37D (11726825_at) / Fold change /veh VPS37D (11726825_at) / RFU C10orf10 (11716522_x_at) / Fold change /veh C10orf10 (11716522_x_at) / RFU KIR2DL2 /// KIR2DL4 /// KIR2DL5A /// KIR2DL5B /// KIR2DS1 /// KIR2DS2 /// KIR2DS3 /// KIR2DS4 /// KIR3DL3 /// KIR3DL3 /// KIR3DS1 (11738374_at) / Fold change /veh KIR2DL2 /// KIR2DL4 /// KIR2DL5A /// KIR2DL5B /// KIR2DS1 /// KIR2DS2 /// KIR2DS3 /// KIR2DS4 /// KIR3DL3 /// KIR3DL3 /// KIR3DS1 (11738374_at) / RFU C1QL1 (11718748_at) / Fold change /veh C1QL1 (11718748_at) / RFU TMPRSS4 (11747572_a_at) / Fold change /veh TMPRSS4 (11747572_a_at) / RFU HAMP (11756126_x_at) / Fold change /veh HAMP (11756126_x_at) / RFU RNFT2 (11725882_a_at) / Fold change /veh RNFT2 (11725882_a_at) / RFU NR4A2 (11747474_a_at) / Fold change /veh NR4A2 (11747474_a_at) / RFU ABCC12 (11746883_a_at) / Fold change /veh ABCC12 (11746883_a_at) / RFU TMEM136 (11760407_x_at) / Fold change /veh TMEM136 (11760407_x_at) / RFU CLDN22 /// WWC2 (11732394_at) / Fold change /veh CLDN22 /// WWC2 (11732394_at) / RFU HLA-DPB1 (11760878_x_at) / Fold change /veh HLA-DPB1 (11760878_x_at) / RFU SPINT1 (11716480_a_at) / Fold change /veh SPINT1 (11716480_a_at) / RFU GAP43 (11754022_s_at) / Fold change /veh GAP43 (11754022_s_at) / RFU A4GNT (11735810_at) / Fold change /veh A4GNT (11735810_at) / RFU PRB3 (11715151_x_at) / Fold change /veh PRB3 (11715151_x_at) / RFU TUBB4B (11761932_at) / Fold change /veh TUBB4B (11761932_at) / RFU CAPN14 (11732068_a_at) / Fold change /veh CAPN14 (11732068_a_at) / RFU TMCC2 (11721928_a_at) / Fold change /veh TMCC2 (11721928_a_at) / RFU IRGQ (11745062_a_at) / Fold change /veh IRGQ (11745062_a_at) / RFU FAM174B (11720279_a_at) / Fold change /veh FAM174B (11720279_a_at) / RFU TMPRSS4 (11748680_a_at) / Fold change /veh TMPRSS4 (11748680_a_at) / RFU FAM212B (11763350_a_at) / Fold change /veh FAM212B (11763350_a_at) / RFU PLEKHG5 (11743358_a_at) / Fold change /veh PLEKHG5 (11743358_a_at) / RFU ZSCAN30 (11745921_a_at) / Fold change /veh ZSCAN30 (11745921_a_at) / RFU CMKLR1 (11741424_a_at) / Fold change /veh CMKLR1 (11741424_a_at) / RFU LOC101060620 /// MAPK8IP1 (11723275_at) / Fold change /veh LOC101060620 /// MAPK8IP1 (11723275_at) / RFU SPTSSB (11747773_x_at) / Fold change /veh SPTSSB (11747773_x_at) / RFU PRSS12 (11739890_at) / Fold change /veh PRSS12 (11739890_at) / RFU BIN1 (11741810_x_at) / Fold change /veh BIN1 (11741810_x_at) / RFU WNT11 (11732464_a_at) / Fold change /veh WNT11 (11732464_a_at) / RFU C10orf10 (11716521_a_at) / Fold change /veh C10orf10 (11716521_a_at) / RFU C5orf56 (11738089_at) / Fold change /veh C5orf56 (11738089_at) / RFU CYB561 (11721691_x_at) / Fold change /veh CYB561 (11721691_x_at) / RFU ANKRD19P (11752326_a_at) / Fold change /veh ANKRD19P (11752326_a_at) / RFU OR2T12 /// OR2T33 /// OR2T8 (11738714_s_at) / Fold change /veh OR2T12 /// OR2T33 /// OR2T8 (11738714_s_at) / RFU VCAN (11748164_a_at) / Fold change /veh VCAN (11748164_a_at) / RFU JSRP1 (11732532_at) / Fold change /veh JSRP1 (11732532_at) / RFU KRTAP10-11 (11738290_x_at) / Fold change /veh KRTAP10-11 (11738290_x_at) / RFU MYO3A (11730013_a_at) / Fold change /veh MYO3A (11730013_a_at) / RFU EBF3 (11725865_a_at) / Fold change /veh EBF3 (11725865_a_at) / RFU CAMK2N1 (11719241_x_at) / Fold change /veh CAMK2N1 (11719241_x_at) / RFU C5orf56 (11738088_a_at) / Fold change /veh C5orf56 (11738088_a_at) / RFU OLFML3 (11715873_a_at) / Fold change /veh OLFML3 (11715873_a_at) / RFU LOC100653217 /// NTM (11731650_a_at) / Fold change /veh LOC100653217 /// NTM (11731650_a_at) / RFU MAPK11 (11762145_a_at) / Fold change /veh MAPK11 (11762145_a_at) / RFU FIZ1 (11724087_x_at) / Fold change /veh FIZ1 (11724087_x_at) / RFU OASL (11726364_x_at) / Fold change /veh OASL (11726364_x_at) / RFU SOX15 (11748057_x_at) / Fold change /veh SOX15 (11748057_x_at) / RFU CD79A (11719716_a_at) / Fold change /veh CD79A (11719716_a_at) / RFU HIST1H1D (11736915_at) / Fold change /veh HIST1H1D (11736915_at) / RFU CASKIN2 (11723855_a_at) / Fold change /veh CASKIN2 (11723855_a_at) / RFU LOC730098 (11760151_x_at) / Fold change /veh LOC730098 (11760151_x_at) / RFU OR4N2 (11742367_at) / Fold change /veh OR4N2 (11742367_at) / RFU PRRT2 (11749266_a_at) / Fold change /veh PRRT2 (11749266_a_at) / RFU SNX32 (11753110_a_at) / Fold change /veh SNX32 (11753110_a_at) / RFU CDHR5 (11726645_a_at) / Fold change /veh CDHR5 (11726645_a_at) / RFU RCAN1 (11760418_a_at) / Fold change /veh RCAN1 (11760418_a_at) / RFU FAM167A (11723789_a_at) / Fold change /veh FAM167A (11723789_a_at) / RFU FAM26E (11764081_at) / Fold change /veh FAM26E (11764081_at) / RFU ISYNA1 (11749810_s_at) / Fold change /veh ISYNA1 (11749810_s_at) / RFU ACY1 (11761880_at) / Fold change /veh ACY1 (11761880_at) / RFU 11764098_at / Fold change /veh 11764098_at / RFU SAMD14 (11745864_x_at) / Fold change /veh SAMD14 (11745864_x_at) / RFU NPB (11741838_a_at) / Fold change /veh NPB (11741838_a_at) / RFU TMPRSS6 (11731388_a_at) / Fold change /veh TMPRSS6 (11731388_a_at) / RFU KRTAP10-2 (11738614_at) / Fold change /veh KRTAP10-2 (11738614_at) / RFU ARHGAP8 /// PRR5-ARHGAP8 (11727945_x_at) / Fold change /veh ARHGAP8 /// PRR5-ARHGAP8 (11727945_x_at) / RFU KRTAP5-7 /// NADSYN1 (11734609_at) / Fold change /veh KRTAP5-7 /// NADSYN1 (11734609_at) / RFU RASL12 (11751679_a_at) / Fold change /veh RASL12 (11751679_a_at) / RFU CDKN2B (11736163_a_at) / Fold change /veh CDKN2B (11736163_a_at) / RFU PRF1 (11729649_at) / Fold change /veh PRF1 (11729649_at) / RFU, ZNF638 /// ZNF638-IT1 / Fold change vs veh, ZNF638 /// ZNF638-IT1 / RFU, PANK3 / Fold change vs veh, PANK3 / RFU, SH3YL1 / Fold change vs veh, SH3YL1 / RFU, ZEB2 / Fold change vs veh, ZEB2 / RFU, NRIP1 / Fold change vs veh, NRIP1 / RFU, PTTG1IP / Fold change vs veh, PTTG1IP / RFU, CAPN2 / Fold change vs veh, CAPN2 / RFU, MED14 / Fold change vs veh, MED14 / RFU, SNORA58 / Fold change vs veh, SNORA58 / RFU, C1orf63 / Fold change vs veh, C1orf63 / RFU, LRRFIP1 / Fold change vs veh, LRRFIP1 / RFU, NDUFAF7 / Fold change vs veh, NDUFAF7 / RFU, SLC12A2 / Fold change vs veh, SLC12A2 / RFU, IBTK / Fold change vs veh, IBTK / RFU, ESF1 / Fold change vs veh, ESF1 / Fold change vs veh, TMEM50B / RFU, TAOK1 / Fold change vs veh, TAOK1 / RFU, ACBD3 / Fold change vs veh, ACBD3 / RFU, TMA16 / Fold change vs veh, TMA16 / RFU, RWDD3 / Fold change vs veh, RWDD3 / RFU, BCAT1 / Fold change vs veh, BCAT1 / RFU, EDEM3 / Fold change vs veh, EDEM3 / RFU, TMEM33 / Fold change vs veh, TMEM33 / RFU, WDR75 / Fold change vs veh, WDR75 / RFU, AHCTF1 / Fold change vs veh, AHCTF1 / RFU, TFRC / Fold change vs veh, TFRC / RFU, ZDHHC17 / Fold change vs veh, ZDHHC17 / RFU, NOM1 / Fold change vs veh, NOM1 / RFU, ARL8B / Fold change vs veh, ARL8B / RFU, ZBTB11 / Fold change vs veh, ZBTB11 / RFU, TAMM41 / Fold change vs veh, TAMM41 / RFU, KIAA1704 /// LOC100996395 / Fold change vs veh, KIAA1704 /// LOC100996395 / RFU, ING1 / Fold change vs veh, ING1 / RFU, TRMT61B / Fold change vs veh, TRMT61B / RFU, FUBP3 / Fold change vs veh, FUBP3 / RFU, TP53 / Fold change vs veh, TP53 / RFU, TNKS2 / Fold change vs veh, TNKS2 / RFU, ZFP14 / Fold change vs veh, ZFP14 / RFU, ACTR2 / Fold change vs veh, ACTR2 / RFU, PPP3R1 / Fold change vs veh, PPP3R1 / RFU, PIK3R1 / Fold change vs veh, PIK3R1 / RFU, HNRNPA1 / Fold change vs veh, HNRNPA1 / RFU, RNF170 / Fold change vs veh, RNF170 / RFU, ZNF28 / Fold change vs veh, ZNF28 / RFU, RNGTT / Fold change vs veh, RNGTT / RFU, OGT / Fold change vs veh, OGT / RFU, BRD1 / Fold change vs veh, BRD1 / RFU, MARS / Fold change vs veh, MARS / RFU, ZNF655 / Fold change vs veh, ZNF655 / RFU, FAHD1 / Fold change vs veh, FAHD1 / RFU, BDP1 / Fold change vs veh, BDP1 / RFU, LRRCC1 / Fold change vs veh, LRRCC1 / RFU, ARID1A / Fold change vs veh, ARID1A / RFU, ZNF146 / Fold change vs veh, ZNF146 / RFU, ZNF330 / Fold change vs veh, ZNF330 / RFU, GPN3 / Fold change vs veh, GPN3 / RFU, C9orf123 / Fold change vs veh, C9orf123 / RFU, N4BP2L2 / Fold change vs veh, N4BP2L2 / RFU, ARFIP1 / Fold change vs veh, ARFIP1 / RFU, FAM179B / Fold change vs veh, FAM179B / RFU, BCL10 / Fold change vs veh, BCL10 / RFU, UHRF1BP1L / Fold change vs veh, UHRF1BP1L / RFU, BET1 / Fold change vs veh, BET1 / RFU, CNOT2 / Fold change vs veh, CNOT2 / RFU, ZNF268 / Fold change vs veh, ZNF268 / Fold change vs veh, ZNF507 / RFU, DGCR2 / Fold change vs veh, DGCR2 / RFU, WDSUB1 / Fold change vs veh, WDSUB1 / Fold change vs veh, HSP90B1 /// MIR3652 / RFU, ADSS / Fold change vs veh, ADSS / RFU, GK / Fold change vs veh, GK / RFU, ZNF148 / Fold change vs veh, ZNF148 / RFU, TAF9 / Fold change vs veh, TAF9 / RFU, SLC1A5 / Fold change vs veh, SLC1A5 / RFU, SLMO2 / Fold change vs veh, SLMO2 / RFU, ABCC4 / Fold change vs veh, ABCC4 / RFU, LOC101060439 /// RAP1B / Fold change vs veh, LOC101060439 /// RAP1B / RFU, RFX7 / Fold change vs veh, RFX7 / RFU, GTPBP10 / Fold change vs veh, GTPBP10 / RFU, CNEP1R1 / Fold change vs veh, CNEP1R1 / RFU, BIVM-ERCC5 /// ERCC5 / Fold change vs veh, BIVM-ERCC5 /// ERCC5 / RFU, ILF3 / Fold change vs veh, ILF3 / RFU 11762660_at / Fold change /veh 11762660_at / RFU VCAN (11757783_s_at) / Fold change /veh VCAN (11757783_s_at) / RFU DDX43 (11728927_at) / Fold change /veh DDX43 (11728927_at) / RFU KRT8 (11758188_x_at) / Fold change /veh KRT8 (11758188_x_at) / RFU NKD1 (11759106_at) / Fold change /veh NKD1 (11759106_at) / RFU SRD5A1 (11742802_a_at) / Fold change /veh SRD5A1 (11742802_a_at) / RFU TPSAB1 /// TPSB2 (11721975_s_at) / Fold change /veh TPSAB1 /// TPSB2 (11721975_s_at) / RFU GSTM3 (11746129_a_at) / Fold change /veh GSTM3 (11746129_a_at) / RFU IL23R (11737362_x_at) / Fold change /veh IL23R (11737362_x_at) / RFU TMEM51 (11727254_a_at) / Fold change /veh TMEM51 (11727254_a_at) / RFU PIWIL2 (11732686_x_at) / Fold change /veh PIWIL2 (11732686_x_at) / RFU ORM1 (11744905_x_at) / Fold change /veh ORM1 (11744905_x_at) / RFU CCDC152 (11743942_at) / Fold change /veh CCDC152 (11743942_at) / RFU ECM1 (11717891_a_at) / Fold change /veh ECM1 (11717891_a_at) / RFU IL23R (11748794_a_at) / Fold change /veh IL23R (11748794_a_at) / RFU TNFAIP8L3 (11732012_x_at) / Fold change /veh TNFAIP8L3 (11732012_x_at) / RFU MBOAT4 (11741988_at) / Fold change /veh MBOAT4 (11741988_at) / RFU 11764193_at / Fold change /veh 11764193_at / RFU TMEM53 (11763286_at) / Fold change /veh TMEM53 (11763286_at) / RFU MAGEB2 (11727129_at) / Fold change /veh MAGEB2 (11727129_at) / RFU TMEM200A (11744735_a_at) / Fold change /veh TMEM200A (11744735_a_at) / RFU CCDC152 (11751479_a_at) / Fold change /veh CCDC152 (11751479_a_at) / RFU FAM211A (11726209_a_at) / Fold change /veh FAM211A (11726209_a_at) / RFU RGS16 (11746705_a_at) / Fold change /veh RGS16 (11746705_a_at) / RFU VCAN (11755009_s_at) / Fold change /veh VCAN (11755009_s_at) / RFU RHOB (11743442_s_at) / Fold change /veh RHOB (11743442_s_at) / RFU RGS16 (11720943_a_at) / Fold change /veh RGS16 (11720943_a_at) / RFU RGS16 (11720944_at) / Fold change /veh RGS16 (11720944_at) / RFU, VPS4B / Fold change vs veh, VPS4B / RFU, CREB1 / Fold change vs veh, CREB1 / RFU, DNAJC13 / Fold change vs veh, DNAJC13 / RFU, GNAQ / Fold change vs veh, GNAQ / RFU, CDK5R1 / Fold change vs veh, CDK5R1 / RFU, ZRANB3 / Fold change vs veh, ZRANB3 / RFU, CUL4A / Fold change vs veh, CUL4A / RFU, CCNY / Fold change vs veh, CCNY / RFU, UFL1 / Fold change vs veh, UFL1 / RFU, COG3 / Fold change vs veh, COG3 / RFU, DIAPH2 / Fold change vs veh, DIAPH2 / RFU, SKA2 / Fold change vs veh, SKA2 / RFU, AFF3 / Fold change vs veh, AFF3 / RFU, LMF1 / Fold change vs veh, LMF1 / RFU, IPO11 / Fold change vs veh, IPO11 / RFU, DFFB / Fold change vs veh, DFFB / RFU, FOXP1 / Fold change vs veh, FOXP1 / RFU, CARD8 / Fold change vs veh, CARD8 / RFU, STRN3 / Fold change vs veh, STRN3 / RFU, ADK / Fold change vs veh, ADK / RFU, RASSF2 / Fold change vs veh, RASSF2 / RFU, WIPF1 / Fold change vs veh, WIPF1 / RFU, LARP1B / Fold change vs veh, LARP1B / RFU, RASA1 / Fold change vs veh, RASA1 / RFU, RB1 / Fold change vs veh, RB1 / RFU, PPFIA1 / Fold change vs veh, PPFIA1 / RFU, MAT2A / Fold change vs veh, MAT2A / RFU, CCT5 / Fold change vs veh, CCT5 / RFU, WDR92 / Fold change vs veh, WDR92 / RFU, CUX1 / Fold change vs veh, CUX1 / RFU, TTC7A / Fold change vs veh, TTC7A / RFU, TMEM135 / Fold change vs veh, TMEM135 / RFU, DEPTOR / Fold change vs veh, DEPTOR / RFU, CPM / Fold change vs veh, CPM / RFU, DNAJB6 / Fold change vs veh, DNAJB6 / RFU, CACNA2D3 / Fold change vs veh, CACNA2D3 / RFU, DTX4 / Fold change vs veh, DTX4 / RFU, TFCP2 / Fold change vs veh, TFCP2 / RFU, GMCL1 /// GMCL1P1 / Fold change vs veh, GMCL1 /// GMCL1P1 / RFU, AEBP2 / Fold change vs veh, AEBP2 / RFU, SNHG1 /// SNORD22 /// SNORD25 /// SNORD26 /// SNORD27 /// SNORD28 /// SNORD29 /// SNORD31 / Fold change vs veh, SNHG1 /// SNORD22 /// SNORD25 /// SNORD26 /// SNORD27 /// SNORD28 /// SNORD29 /// SNORD31 / Fold change (Aza/veh), C12orf56 (ProbeSet 11735607_a_at) / Fold change (ACY-1035/veh), C12orf56 (ProbeSet 11735607_a_at) / Fold change (Aza/veh), FGFR1OP (ProbeSet 11751329_s_at) / Fold change (ACY-1035/veh), FGFR1OP (ProbeSet 11751329_s_at) / Fold change (Aza/veh), VPS36 (ProbeSet 11739960_a_at) / Fold change (ACY-1035/veh), VPS36 (ProbeSet 11739960_a_at) / RFU SYPL1 (11715823_x_at) / Fold change /veh SYPL1 (11715823_x_at) / RFU IGFBP7 (11715501_s_at) / Fold change /veh IGFBP7 (11715501_s_at) / RFU REEP3 (11722064_at) / Fold change /veh REEP3 (11722064_at) / RFU IGLL1 (11728026_x_at) / Fold change /veh IGLL1 (11728026_x_at): dose or concentration left out as unconfirmed
Conditions: ProbeSet 11763895_x_at; LIST B

Compound: Nc1ncn([C@@H]2O[C@H](CO)[C@@H](O)[C@H]2O)c(=O)n1 [azacitidine]
- Fold change vs veh, SNORA58: 1.03
